Laboratory results: US20240091227A1, “Use Of 2-Phenyl-6-(1H-Imidazol-1-YL) Quinazoline For Treating Neurodegenerative Diseases, Preferably Alzheimer's Disease” (ROTTAPHARM BIOTECH S.R.L., priority 2019, published 2024)
Where two headings read alike, the source gives them in different places.

How the values were obtained:
[1] = test system: Rats treated with scopolamine; test: Morris water maze in scopolamine-induced memory impairment; assay type: in vivo, rat; details: scopolamine 1 mg/kg sc, CR4056 20 mg/kg os, mean over four days
Method: FIG. 4 reports the results of the Morris Water Maze test in the model of scopolamine-induced memory loss. Rats treated with scopolamine (Sco, 1 mg/kg) or physiological solution (Sal) received CR4056 20 mg/kg/die or its vehicle (MC). Data represented the mean time spent to reach the hidden platform over four days. Two way ANOVA. Tukey Comparison test. ** P<0.01.
The Morris water maze test was used to evaluate cognitive function distinct in two phases: first, the acquisition and spatial localization of a hidden platform and, subsequently, the processing, consolidating, retaining and then retrieving the acquired information to successfully locate the platform to escape the water.
Place navigation required the rats to learn to swim from any starting position to the escape platform, thereby acquiring a long-term memory of the platform's spatial location. Animals were placed into various quadrants of the pool and the time elapsed and the distance traversed to reach the hidden platform was recorded. Various objects were placed in the testing room so that the animals used these visual cues as a means of navigating in the Maze. After repeated entry into the Maze, the animals became more and more efficient at locating the platform, thus escaping the water by learning the location of the platform relative to the distal visual cues. […]

TNFα = TNFα gene expression in IL-1β-stimulated U373 MG astrocytoma cells (RT-PCR); assay type: cell-based, human; details: IL-1β 2 ng/ml
Method: A model of astrocytes, the human glioblastoma astrocytoma cell line U373 MG (Uppsala), was used for these experiments. Adherent cells were grown in DMEM medium supplemented with 10% FBS at 37° C. with CO2. 72 hours after plating, cells were treated for 1 h with 2-phenyl-6-(1H-imidazol-1-yl)quinazoline (CR4056) (10 μM) prepared according to EP2066653 and then stimulated with the pro-inflammatory cytokine IL-1β (2 ng/mL) for further 6 and 24 h.
At the end of incubation period, total RNA was obtained and retro-transcribed using the High-Capacity cDNA Reverse Transcription Kit (Thermo Fisher Scientific). The levels of expression of COX-2, IL-1β, IL-6 and TNFα were evaluated by RT-PCR analysis, performed using the Applied Biosystems 7500 Fast Real-Time PCR System using specific TaqMan assays and, as an endogenous control, the 18S Pre-Developed TaqMan® Assay (Thermo Fisher Scientific). The data analysis, with normalisation on 18S amplified values, was according to Thermo Fisher Scientific specific instructions for gene expression relative quantification. All individual data were the result of at least three different measurements for each sample.
Percentage of gene expression inhibition observed in U373 cells stimulated with IL-1β 2 ng/ml and exposed to 10 μM CR4056 for the indicated time.

PKCε = PKCε translocation to the plasma membrane in cultured dorsal root ganglia neurons; assay type: cell-based, rat; details: for IC50: rat DRG neurons
Method: FIG. 1 reports the time-course (A) and washout (B) of CR4056 effect on PKCF translocation induced by bradykinin (BK 1 μM). In Panel A, open symbols represent the percentage of neurons positive for PKCF translocation following BK stimulation in absence of the drug. Filled symbols represent neurons pre-incubated with CR4056 ([…]) for different times before the stimulation for 30 seconds with BK+CR4056. The first filled symbol indicates the effect of CR4056 co-incubated for 30 seconds with BK, the second filled symbol indicates 10 seconds of pre-incubation of CR4056, and the last indicates 24 hours of pre-incubation of CR4056. […] In Panel B, BK-induced PKCF translocation was evaluated before (open symbol) and after pre-incubation of CR4056 ([…]) at different time intervals (from 10 minutes to 8 hours) (filled symbols). The first datapoint was obtained at the end of the 10 minute pre-incubation, when CR4056 was still present. The subsequent datapoints were obtained after extensive rinsing to ensure complete removal of the drug from extracellular solution (n=3).
Rat dorsal root ganglia (DRGs) were obtained from freshly isolated spines after carefully removing nerve trunks and connective tissue. Larger ganglia, chopped into 2-4 smaller pieces were then incubated for 1 hour at 37° C. in 0.125% collagenase (Worthington, Freehold, NJ) dissolved in Dulbecco's modified Eagle's medium (DMEM) containing 10% fetal bovine serum (FBS) plus 1% penicillin/streptomycin and 1% L-glutamine (Euroclone, Milan, Italy). After enzymatic digestion, ganglia were mechanically dissociated and neurons plated at a density such that neurons would cover about 30% of coverslip surface in a single layer, in petri dishes containing wells with a glass bottom coverslip (pre-coated with 10 μg/mL poly-L-lysine and 20 µg/ml laminin, Sigma-Aldrich, Milan, Italy). Cells were incubated for 2-3 days in DMEM as described above, plus 1.5 μg/ml cytosine 1-d-arabinofuranoside (ARA-C, Sigma-Aldrich) to slow down proliferation of non neuronal cells, and 100 ng/ml nerve growth factor (NGF, Sigma-Aldrich) to increase cell health and the and the expression of receptors which are linked to PKCF translocation upon stimulation. Activation of membrane receptors coupled to phospholipase C pathway leads to PKCF translocation from cytoplasm to the plasma membrane. In order to study PKCε behaviour a well established technique was employed (Vellani V, Neuroscience, 2006). […] CR4056 was pre-applied in the culture medium for 10 min or co-applied with the stimulus. After fixation, cells were permeabilized with 0.2% Triton X-100 (Sigma-Aldrich, Milan, Italy) and exposed overnight to a rabbit polyclonal antibody highly specific for PKCF. After extensive rinsing, PKCF was visualized with a secondary antibody (1:200 dilution Alexa Fluor 488 goat anti-rabbit, Thermo Fisher Scientific, Monza, Italy) applied for 2-4 hours at room temperature in the dark Cells showing PKCF translocation were detected with a confocal microscope (Leica SP2, Leica, Switzerland) by measuring fluorescence intensity along a line drawn through the cytoplasm and the membrane, thus avoiding the nucleus. Neurons in which fluorescence intensity at the plasma membrane throughout the cell was 1.5-fold or higher than the mean cytoplasmic intensity were considered positive.

rats = test: Irwin test (neurobehavioral changes); assay type: in vivo, rat; details: suprapharmacological concentrations
Text: These findings indicate that CR4056 could be a safe drug for treating neurodegenerative diseases, and, in particular, Alzheimer disease.

[2] = 10 μM, 10 minute application, then washout

Compound: c1ccc(-c2ncc3cc(-n4ccnc4)ccc3n2)cc1 [CR4056, 2-phenyl-6-(1H-imidazol-1-yl)quinazoline]
- Time to reach the hidden platform, Morris water maze [1]: significantly reduced the time taken to get to the platform
- Percentage of gene expression inhibition, TNF-α (TNFα; 10 μM CR4056, 6 h): not yet modulated
- Percentage of gene expression inhibition, TNF-α (TNFα; 10 μM CR4056, 24 h): 52%
- Time after washout during which the effect remained unchanged (PKCε; [2]): up to 1 hour
- Time after washout to complete reversal of the effect (PKCε; [2]): 3 to 4 h
- Influence of preincubation time on inhibition of PKCF translocation (PKCε; 10 μM, preincubation prolonged up to 24 hours or reduced to 10 seconds): did not change the extent of the effect
- Effect on BK-induced PKCF translocation, time-course (FIG. 1A) (PKCε; CR4056 10 M, co-incubation 30 seconds to 24 hours pre-incubation, BK 1 μM, t-test p<0.05, n=6): highly significant at all times
- Concentration at which the dose-response curves approached saturation (PKCε; CR4056 applied for 10 minutes): about 10 μM
- IC50 (PKCε; bradykinin stimulus, read-out: IC50, inhibition of PKCF translocation obtained with BK): 0.2 µM
- IC50 (PKCε; prokineticin 2 stimulus, read-out: IC50, inhibition of PKCF translocation obtained with PK2): 0.17 µM
- Neurobehavioral changes (Irwin test) (rats): neither neurobehavioral changes
